Patent publication EP1624029A1, “New Pyridinium imine based dyes and their use in optical layers for optical data recording” (CLARIANT INTERNATIONAL LTD., priority 2004, dated 2006)

Experiment: DSC thermal decomposition
Assay type: physicochemical
Settings: decomposition temperature by DSC
Source text: The optical and thermal properties of the pyridinium imine based dye compounds were studied. The dyes show high absorption at the desired wavelengths. In addition, the shape of the absorption spectra, that still remains critical to the disc reflectivity and formation of clean mark edges, are composed of one major band, comprised in a range of from 350 to 500 nm, preferably of from 350 to 400 nm. […] Sharp threshold of thermal decomposition within the required temperature range characterizes the new pyridinium imine based dyes which are assumed to be desirable for the application in optical layers for optical data recording. As a conclusion, the pyridinium imine based dye compounds are within the specifications which are primarily required by the industry for the use of dyes in optical data recording, in particular in the next-generation optical data recording media in the blue laser range.

CC[n+]1ccccc1N=CC1C(=O)NC(=O)NC1=O [Example 1]
DSC (decomp.): 326 °C
